Values quoted from earlier work in patent US20040170683A1, “Tablets comprising modafinil” (priority 2003, published 2004).

What was measured:
[1] = oral, human trials; median particle size between 30 and 50 microns versus between 80 and 150 microns
[2] = capsules containing the finer particles versus capsules containing the coarser particles

For `NC(=O)C[S+]([O-])C(c1ccccc1)c1ccccc1` (centres unmarked) [modafinil, Modafinil], the extent of absorption [1] is given as “greater extent of absorption” and the dissolution of capsules [2] is given as “substantially faster”.
